{"source": "patent US20110245334A1", "about": "“USE OF RACEMATES OF PINOCEMBRIN IN PREPARING MEDICAMENTS FOR TREATING STROKE” (CSPC Zhonggi Pharmaceutical Technology (Shijiazhuang) Co. …, priority 2008, published 2011)", "key": {"plasma ET-1": {"tested_on": "plasma ET-1", "experiment": "Plasma ET-1 (radioimmunoassay) in SHRSP", "type": "in vivo, rat", "set-up": "ET-1 content: unit not given here", "conditions": "plasma, SHRSP rats", "experimental": "5) Blood of 2 mL was dropped rapidly in a cuvette with 30 μL 7.5% EDTA-2Na and 40 μL aprotinin and mixed. After centrifuged for 5 min at 3000 rpm, plasma ET-1 in liquid supernatant was determined by isotope radioimmunoassay."}, "MCAO rats [1]": {"tested_on": "MCAO rats", "experiment": "Neurobehavioral examination (Bederson's score), MCAO acute ischemic stroke", "type": "in vivo, rat", "experimental": "Experimental animals: 100 male SD rats with a body weight of 250-280 g were purchased from the Experimental Animals Institute of the Chinese Academy of Medical Science. The rats were grouped randomly as a sham operation group, a model group, pinocembrin groups and a nimodipine group (3 mg/kg).\nExperimental model: the model of acute ischemic stroke was made by middle cerebral artery occlusion (MCAO).\nThe string occlusion method in middle cerebral artery as established by Zea Longa was adopted with proper improvements. 400 mg/kg 10% chloral hydrate was intraperitoneally injected in rats. The external carotid artery (ECA) was separated and ligated at the site where the artery emitted for about 0.8 cm. The end of ECA closing to the heart was clipped by an artery clip. A 2 mm V-shaped incision was made from ECA ligation to ECA bifurcation. A nylon line was inserted gently into […] and then into internal carotid artery (ICA) through the bifurcation of ECA and ICA after loosening the artery clip. The nylon line was pushed into the brain through ICA and inserted in depth of 18.5±0.5 mm when resistance was felt slightly. The nylon line should reach smaller anterior cerebral artery through the beginning of middle cerebral artery (MCA) and ICA could be ligated and sutured. Stump of the nylon line should be reserved with 1 cm outside the skin.\nNeurobehavioral examination was performed before the animals were put to death. The rats were raised off the ground for about 1 chi (1 chi=⅓ meter) to observe the state of two forelimbs. The rats were placed on the ground and were pushed by their shoulders to observe differences of their resistance. The rats were placed on the ground and were observed by the way of walking. Four-stage scoring method […] was adopted. The higher the score was, the more serious injury existed in their neurobehavior.\nBederson's scoring standard:\n(1) If the rats acted completely normal, score 0 was recorded.\n(2) When the rats were raised off the ground, if the rats rotated or retracted forelimb of surgery-contralateral side internally, score 1 was recorded.\n(3) When the rats were placed on the ground and squeezed with the hand to examine the resistance of both sides, if the resistance of surgery-contralateral side declined, score 2 was recorded.\n(4) When the rats were placed on the ground to observe the way of walking, if the rats circled around the surgery-contralateral side, score 3 was recorded.\n(5) If the rats were injured too seriously to move by themselves, score 4 was recorded."}, "MCAO rats [2]": {"tested_on": "MCAO rats", "experiment": "Cerebral infarct volume (TTC), MCAO", "type": "in vivo, rat", "experimental": "After neurobehavioral scoring, the rats were put to death by decollation and their brain tissues were removed quickly and put into a refrigerator of −20° C. 10 min later, the brain tissue was moved to an environment of room temperature. After the olfactory bulb, cerebellar and lower brain stem were resected, the brain tissue was cut into five continuous coronal slices with an interval of 2 mm and was cut first on the connection midpoint of brain anterior pole and optic decussation, second on optic decussation, third on funnel handle and fourth on midpoint of funnel handle and thick leaves caudate nucleus. Then the brain slices were quickly put into 5 ml solution containing 4% TTC and 0.1 ml mol·L^−1K2HPO4 and incubated at a constant temperature of 37° C. and in condition of darkness for 30 min. During the time period, the brain slices were tipped every 5 min. […] Every group of brain slices were put in order and photographed. The photographs were processed by an image analysis system and infarct area in every slice was calculated. The infarct volume of every slice was calculated by multiplying the infarct area by the thickness of slice (2 mm), and the infarct volume was the sum of infarct volumes of all slices.\nInfarct volume(%)=(volume of surgery-contralateral hemisphere−infarct volume of surgery-homolateral hemisphere)/volume of surgery-contralateral hemisphere×100%"}, "tMCAO rats [3]": {"tested_on": "tMCAO rats", "experiment": "Brain water content, tMCAO time window study", "type": "in vivo, rat", "conditions": "2 hours ischemia and 24 hours reperfusion", "experimental": "(§1) 1. In the test, transient middle cerebral artery occlusion (tMCAO) model of rats was adopted. The reperfusion was performed after focal cerebral ischemia for 2 hours so as to inspect therapeutic time window of pinocembrin after focal cerebral ischemia. The rats were administered by pinocembrin racemate (1 mg/kg, 5 mg/kg, intravenous injection) after reperfusion 1 hour, 4 hours and 6 hours (i.e., ischemia 3 hour, 6 hours and 8 hours). (R)-pinocembrin and (S)-pinocembrin (1 mg/kg, 5 mg/kg, intravenous injection) were administered after reperfusion 1 hour and 4 hours (i.e., ischemia 3 hour and 6 hours). The therapeutic time windows of these drugs in focal cerebral ischemia were assessed by studying their effects to neurological symptom scores, infarct sizes and brain water contents during 24 hours after tMCAO.\n(§2) 2.4 Experimental Grouping and Administration • Sham operation group (intravenous injection of normal saline after 3 hours of ischemia); • Model group (intravenous injection of 50 mg/kg hydroxypropyl β-cyclodextrin after 3 hours of ischemia); • Nimodipine group (1 mg/kg, administered after 3 hours of ischemia); • Pinocembrin racemate group (1 mg/kg, 5 mg/kg, administered after 3, 6 and 8 hours of ischemia); • (R)-pinocembrin group (1 mg/kg, 5 mg/kg, administered after 3 and 6 hours of ischemia); • (S)-pinocembrin group (1 mg/kg, 5 mg/kg, administered after 3 and 6 hours of ischemia).\n(§3) First administration was performed by intravenous injection, and intraperitoneal injection was carried out once 12 hours later with a dose 1.5 times of that for intravenous injection.\nThe wet weight of each animal's brain was weighted before sliced. After staining, the brain slices were dried at 105° C. for 24 hours, and the dry weight of each animal's brain was weighted. The brain water contents of animals of various groups were compared. Brain water content=(brain wet weight−brain dry weight)/brain wet weight×100%."}, "tMCAO rats [4]": {"tested_on": "tMCAO rats", "experiment": "Therapeutic time window in focal cerebral ischemia-reperfusion injured rats", "type": "in vivo, rat", "conditions": "1 mg/kg, 5 mg/kg; for effect on neurobehavioral injury, infarct volume and cerebral edema: tMCAO rats", "experimental": "as §1, §2, §3"}, "in vivo": {"experiment": "in vivo", "conditions": "SD, rat, iv"}}, "data": [{"smiles": "O=C1CC(c2ccccc2)Oc2cc(O)cc(O)c21", "note": "(racemic) [Pinocembrin racemate, pinocembrin racemate]", "values": [{"measurement": "ET-1 content", "setting": "plasma ET-1; 3 mg/kg", "result": "221.4 ± 20.4"}, {"measurement": "ET-1 content", "setting": "plasma ET-1; 10 mg/kg", "result": "209.2 ± 16.7"}, {"measurement": "ET-1 content", "setting": "plasma ET-1; 30 mg/kg", "result": "182.4 ± 24.2"}, {"measurement": "Bederson's score", "setting": "MCAO rats [1]; 3 mg/kg", "result": "2.4 ± 0.7"}, {"measurement": "Bederson's score", "setting": "MCAO rats [1]; 10 mg/kg", "result": "1.8 ± 0.6"}, {"measurement": "Bederson's score", "setting": "MCAO rats [1]; 30 mg/kg", "result": "1.5 ± 0.3"}, {"measurement": "Percentage of infarct volume (%)", "setting": "MCAO rats [2]; 3 mg/kg", "result": "23.1 ± 3.4", "unit": "%"}, {"measurement": "Percentage of infarct volume (%)", "setting": "MCAO rats [2]; 3 mg/kg, listed as pinocembrin racemate", "result": "23.1±3.4", "unit": "%"}, {"measurement": "Percentage of infarct volume (%)", "setting": "MCAO rats [2]; 10 mg/kg", "result": "21.4 ± 2.1", "unit": "%"}, {"measurement": "Percentage of infarct volume (%)", "setting": "MCAO rats [2]; 10 mg/kg, listed as pinocembrin racemate", "result": "21.4±2.1", "unit": "%"}, {"measurement": "Percentage of infarct volume (%)", "setting": "MCAO rats [2]; 30 mg/kg", "result": "14.6 ± 1.1", "unit": "%"}, {"measurement": "Percentage of infarct volume (%)", "setting": "MCAO rats [2]; 30 mg/kg, listed as pinocembrin racemate", "result": "14.6±1.1", "unit": "%"}, {"measurement": "Brain water content (%)", "setting": "tMCAO rats [3]; 1 mg/kg, 3 h", "result": "82.20 ± 1.00", "unit": "%"}, {"measurement": "Brain water content (%)", "setting": "tMCAO rats [3]; 1 mg/kg, 6 h", "result": "82.44 ± 1.28", "unit": "%"}, {"measurement": "Brain water content (%)", "setting": "tMCAO rats [3]; 1 mg/kg, 8 h", "result": "83.26 ± 1.05", "unit": "%"}, {"measurement": "Brain water content (%)", "setting": "tMCAO rats [3]; 5 mg/kg, 3 h", "result": "82.23 ± 1.42", "unit": "%"}, {"measurement": "Brain water content (%)", "setting": "tMCAO rats [3]; 5 mg/kg, 6 h", "result": "81.12 ± 1.42", "unit": "%"}, {"measurement": "Brain water content (%)", "setting": "tMCAO rats [3]; 5 mg/kg, 8 h", "result": "83.29 ± 1.79", "unit": "%"}, {"measurement": "therapeutic time window", "setting": "tMCAO rats [4]; acute ischemic stroke in rats (tMCAO), iv", "result": "about 6 hours"}, {"measurement": "effect on neurobehavioral injury, infarct volume and cerebral edema", "setting": "tMCAO rats [4]; initially injected after 3 hours of ischemia", "result": "significant"}, {"measurement": "effect on neurobehavioral injury, infarct volume and cerebral edema", "setting": "tMCAO rats [4]; initially injected after 6 hours of ischemia", "result": "significant"}, {"measurement": "LD50", "setting": "in vivo", "result": 491, "unit": "mg/kg"}]}, {"smiles": "COCCOC(=O)C1=C(C)NC(C)=C(C(=O)OC(C)C)C1c1cccc([N+](=O)[O-])c1", "note": "(stereo not drawn) [Nimodipine, reference compound]", "values": [{"measurement": "ET-1 content", "setting": "plasma ET-1; 3 mg/kg", "result": "174.8 ± 20.8"}, {"measurement": "Bederson's score", "setting": "MCAO rats [1]; 3 mg/kg", "result": "2.5 ± 0.7"}, {"measurement": "Percentage of infarct volume (%)", "setting": "MCAO rats [2]; 3 mg/kg", "result": "16.7 ± 1.3", "unit": "%"}, {"measurement": "Percentage of infarct volume (%)", "setting": "MCAO rats [2]; 3 mg/kg, listed as nimodipine", "result": "16.7±1.3", "unit": "%"}, {"measurement": "Brain water content (%)", "setting": "tMCAO rats [3]; 1 mg/kg, 3 h", "result": "83.33 ± 1.01", "unit": "%"}]}]}
